Measurements taken from the supplement of paper PMC10307832.

Experiments:
Experiment in all cases: relative viability (nuclei count vs DMSO), 5 days (fraction); higher = more cells survive
[1] = compound: CCCS(=O)(=O)Nc1ccc(F)c(C(=O)c2c[nH]c3ncc(-c4ccc(Cl)cc4)cc23)c1F [Vemurafenib] + CCNC(=O)c1noc(-c2cc(C(C)C)c(O)cc2O)c1-c1ccc(CN2CCOCC2)cc1 [Luminespib] (partner 0.01 µM)
In short: (§1)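 Lung cancer cell lines were seeded in 1536-well plates and dosed by pin tool the next day, with either a single drug or a fixed anchor-drug dose combined with five library-drug doses (not always all listed) spaced in √10 steps. Five days later, one step fixed the cells and stained their nuclei (final 0.05% Triton X-100, 1% formaldehyde, 1 ug/ml Hoechst), and nuclei were counted on 4× images. Relative viability is the nuclei count in treated wells divided by the count in vehicle wells, and each value is the median of duplicate plates.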

[2] = compound: COc1cccc2cc(-c3nc([C@H]4CC[C@H](C(=O)O)CC4)n4ncnc(N)c34)[nH]c12 [OSI-027] + Nc1nc2[nH]cc(CCc3ccc(C(=O)N[C@@H](CCC(=O)O)C(=O)O)cc3)c2c(=O)[nH]1 [Pemetrexed] (partner 0.2 µM)
In short: as §1

[3] = compound: Cc1nc(NC(=O)N2CCC[C@H]2C(N)=O)sc1-c1ccnc(C(C)(C)C(F)(F)F)c1 [Alpelisib] + COc1cc2c(Oc3ccc(NC(=O)C4(C(=O)Nc5ccc(F)cc5)CC4)cc3F)ccnc2cc1OCCCN1CCOCC1 [Foretinib] (partner 0.25 µM)
In short: as §1

[4] = compound: Cc1nc(NC(=O)N2CCC[C@H]2C(N)=O)sc1-c1ccnc(C(C)(C)C(F)(F)F)c1 [Alpelisib] + Cc1cc(Nc2cc(N3CCN(C)CC3)nc(Sc3ccc(NC(=O)C4CC4)cc3)n2)n[nH]1 [Tozasertib] (partner 0.1 µM)
In short: as §1

RERF-LC-KJ
relative viability ([1]; first compound 0.03162 µM): 1.26
relative viability ([1]; first compound 0.1 µM): 0.991
relative viability ([1]; first compound 0.3162 µM): 1.26
relative viability ([1]; first compound 1 µM): 1.31
relative viability ([2]; first compound 0.01 µM): 0.466
relative viability ([2]; first compound 0.03162 µM): 0.48
relative viability ([2]; first compound 0.1 µM): 0.464
relative viability ([2]; first compound 0.3162 µM): 0.463
relative viability ([2]; first compound 1 µM): 0.375
relative viability ([3]; first compound 0.04 µM): 0.779
relative viability ([3]; first compound 0.1265 µM): 0.773
relative viability ([3]; first compound 0.4 µM): 0.893
relative viability ([3]; first compound 1.265 µM): 0.716
relative viability ([3]; first compound 4 µM): 0.696
relative viability ([4]; first compound 0.04 µM): 0.466
relative viability ([4]; first compound 0.1265 µM): 0.455
relative viability ([4]; first compound 0.4 µM): 0.572
relative viability ([4]; first compound 1.265 µM): 0.363
relative viability ([4]; first compound 4 µM): 0.349

SK-LU-1
relative viability ([1]; first compound 0.03162 µM): 0.208
relative viability ([1]; first compound 0.1 µM): 0.219
relative viability ([1]; first compound 0.3162 µM): 0.171
relative viability ([1]; first compound 1 µM): 0.218
relative viability ([2]; first compound 0.01 µM): 1.02
relative viability ([2]; first compound 0.03162 µM): 1.03
relative viability ([2]; first compound 0.1 µM): 0.869
relative viability ([2]; first compound 0.3162 µM): 0.689
relative viability ([2]; first compound 1 µM): 0.385
relative viability ([3]; first compound 0.04 µM): 0.831
relative viability ([3]; first compound 0.1265 µM): 0.796
relative viability ([3]; first compound 0.4 µM): 0.854
relative viability ([3]; first compound 1.265 µM): 0.453
relative viability ([3]; first compound 4 µM): 0.681
relative viability ([4]; first compound 0.04 µM): 0.347
relative viability ([4]; first compound 0.1265 µM): 0.289
relative viability ([4]; first compound 0.4 µM): 0.372
relative viability ([4]; first compound 1.265 µM): 0.256
relative viability ([4]; first compound 4 µM): 0.216

SK-MES-1
relative viability ([1]; first compound 0.03162 µM): 0.866
relative viability ([1]; first compound 0.1 µM): 0.553
relative viability ([1]; first compound 0.3162 µM): 0.646
relative viability ([1]; first compound 1 µM): 0.745
relative viability ([2]; first compound 0.01 µM): 0.998
relative viability ([2]; first compound 0.03162 µM): 0.919
relative viability ([2]; first compound 0.1 µM): 0.866
relative viability ([2]; first compound 0.3162 µM): 0.782
relative viability ([2]; first compound 1 µM): 0.359
relative viability ([3]; first compound 0.04 µM): 0.799
relative viability ([3]; first compound 0.1265 µM): 0.864
relative viability ([3]; first compound 0.4 µM): 0.904
relative viability ([3]; first compound 1.265 µM): 0.809
relative viability ([3]; first compound 4 µM): 0.525
relative viability ([4]; first compound 0.04 µM): 0.937
relative viability ([4]; first compound 0.1265 µM): 0.901
relative viability ([4]; first compound 0.4 µM): 1.03
relative viability ([4]; first compound 1.265 µM): 0.745
relative viability ([4]; first compound 4 µM): 0.89

SW 900
relative viability ([1]; first compound 0.03162 µM): 0.168
relative viability ([1]; first compound 0.1 µM): 0.174
relative viability ([1]; first compound 0.3162 µM): 0.207
relative viability ([1]; first compound 1 µM): 0.208
relative viability ([2]; first compound 0.01 µM): 0.368
relative viability ([2]; first compound 0.03162 µM): 0.56
relative viability ([2]; first compound 0.1 µM): 0.477
relative viability ([2]; first compound 0.3162 µM): 0.508
relative viability ([2]; first compound 1 µM): 0.406
relative viability ([3]; first compound 0.04 µM): 1.22
relative viability ([3]; first compound 0.1265 µM): 0.991
relative viability ([3]; first compound 0.4 µM): 0.79
relative viability ([3]; first compound 1.265 µM): 0.885
relative viability ([3]; first compound 4 µM): 0.843
relative viability ([4]; first compound 0.04 µM): 0.734
relative viability ([4]; first compound 0.1265 µM): 0.5
relative viability ([4]; first compound 0.4 µM): 0.88
relative viability ([4]; first compound 1.265 µM): 0.571
relative viability ([4]; first compound 4 µM): 0.358

SW 1573
relative viability ([1]; first compound 0.03162 µM): 0.16
relative viability ([1]; first compound 0.1 µM): 0.583
relative viability ([1]; first compound 0.3162 µM): 0.377
relative viability ([1]; first compound 1 µM): 0.194
relative viability ([2]; first compound 0.01 µM): 0.817
relative viability ([2]; first compound 0.03162 µM): 0.982
relative viability ([2]; first compound 0.1 µM): 0.852
relative viability ([2]; first compound 0.3162 µM): 0.771
relative viability ([2]; first compound 1 µM): 0.343
relative viability ([3]; first compound 0.04 µM): 0.854
relative viability ([3]; first compound 0.1265 µM): 0.713
relative viability ([3]; first compound 0.4 µM): 0.823
relative viability ([3]; first compound 1.265 µM): 0.696
relative viability ([3]; first compound 4 µM): 0.724
relative viability ([4]; first compound 0.04 µM): 0.172
relative viability ([4]; first compound 0.1265 µM): 0.149
relative viability ([4]; first compound 0.4 µM): 0.175
relative viability ([4]; first compound 1.265 µM): 0.151
relative viability ([4]; first compound 4 µM): 0.166
